This note sets out measurements from patent US20080146626A1, “USE OF EPOTHILONES IN THE TREATMENT OF OSTEOPOROSIS AND RELATED DISEASES” (priority 2006, published 2008).

Several values for one entry are separate records, joined by “and”; a condition that tells them apart may be missing. Identical values can stand only once.

Series [1] relates to human osteoclasts. As to the kind of experiment: osteoclast activity assay (bone resorption on bovine bone slices, CTX/TRACP 5b).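 As to concentration of CTX released from bone collagen into the culture medium: CTX concentration in nM.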 In kind it is cell-based. Conditions: for resorption index CTX at day 10/TRACP 5b at day 7 / concentration of CTX released from bone collagen into the culture medium: 1.0 μM E64; for concentration of CTX released from bone collagen into the culture medium: resorption phase days 7-10. The method, then: The objective of this study is to investigate the effects of selected test compounds selected on resorbing activity of human osteoclasts in vitro. Bone resorption is studied using a model where human osteoclast precursor cells derived from bone marrow are cultured for 7 days on bovine bone slices and allowed to differentiate into bone-resorbing osteoclasts. At day 7, the culture medium is changed, the test compounds are added, and the formed mature osteoclasts are allowed to resorb bone in an additional 3-day culture period. Tartrate-resistant acid phosphatase isoform 5b activity (TRACP 5b) is measured from the culture medium collected at day 7 as an index of the number of osteoclasts formed in each well during the differentiation period. After the totally 10 days culture period, C-terminal cross-linked telopeptides of type I collagen (CTX) are quantitated from the culture medium as an index of bone resorption. The results are expressed as the resorption index (CTX at day 10/TRACP 5b at day 7), which describes the mean activity of a single osteoclast. In each test, a baseline group without test compounds is included to obtain a baseline value. […] The test system can also be modified by adding the test compounds at the beginning of the culture period to study if the test compounds affect osteoclast differentiation. Osteoprotegerin is used as a reference inhibitor of osteoclast differentiation in such cultures.
Used herein is a method where osteoclast precursor cells derived from human bone marrow are cultured on bovine bone slices. The cells are first allowed to differentiate into mature bone-resorbing osteoclasts, and the formed osteoclasts are then allowed to resorb bone. The system is ideally suitable for determining the effects of test compounds on bone resorption in vitro. Test compounds are added into the cell cultures after the differentiation period, and their effect on the resorbing activity of mature osteoclasts is determined.
(§1) The bone resorption assay is performed according to the above described Standard Operation Procedure. Shortly, human bone marrow-derived stem cells are suspended to culture medium and allowed to attach to bovine bone slices. The bone slices are transferred into 96-well tissue culture plates containing culture medium with appropriate amounts of important growth factors favoring osteoclast differentiation, including M-CSF, RANK-ligand and TGF-beta. The cells are incubated in a CO2 incubator in humidified atmosphere of 95% air and 5% carbon dioxide at 37° C. At day 7 when osteoclast differentiation is completed, the culture medium is replaced with culture medium containing conditions favoring osteoclast activity, and the test compounds are added. The cell culture is continued for an additional three days, during which the formed mature osteoclasts are allowed to resorb bone in the presence of vehicle, control inhibitor (E64) or test compounds at different concentrations. Tartrate-resistant acid phosphatase isoform 5b activity (TRACP 5b) is measured from the culture medium collected at day 7 using the BoneTRAP® assay (SBA-Sciences, Oulu, Finland). Medium TRACP 5b activity describes the number of osteoclasts formed in each well during the differentiation period. At the end of the culture period, C-terminal cross-linked telopeptides of type I collagen (CTX) released from the bone slices are quantitated as an index of bone resorption using CrossLaps® for culture assay (Nordic Bioscience, Herlev, Denmark). The results are expressed as the resorption index (CTX at day 10/TRACP 5b at day 7), which describes the mean activity of a single osteoclast. When necessary, the ToxiLight® assay (Cambrex, East Rutherford, N.J., USA) is used to detect cytotoxic effects of test compounds.
Two separate experiments were performed in this study, an osteoclast differentiation assay and an osteoclast activity assay.

Series [2] has as its system human osteoclasts. As to the kind of experiment: cytotoxicity in human osteoclast activity assay (luminescence released from dying cells). Conditions: day 10; for luminescence released from dying cells during the culture period: 1.0 μM E64; for Cytotoxicity, % compared with baseline group: baseline mean = 100%. On the procedure: as §1
Two separate experiments were performed in this study, an osteoclast differentiation assay and an osteoclast activity assay. In the osteoclast differentiation assay, osteoclast precursor cells were cultured for 7 days in the presence of the test compound, and TRACP 5b released into the culture medium was determined at day 7 as an index of the number of osteoclasts formed. Cytotoxicity was determined by quantitating the amount of dying cells from the culture medium at day 2. In the osteoclast activity assay, the test compounds were added after osteoclast differentiation was completed at day 7, and the mature osteoclasts were cultured for an additional 3 days, allowing them to resorb bone. […] Medium CTX was measured at day 10 to quantitate bone resorption during days 7-10, and the results are expressed as the resorption index CTX at day 10/TRACP 5b at day 7, which describes the mean resorbing activity of a single osteoclast. Cytotoxicity was determined by quantitating the amount of dying cells from the culture medium at day 10.
The test compounds were added after osteoclast differentiation was completed at day 7, and the mature osteoclasts were cultured for an additional 3 days, allowing them to resorb bone. […] Medium CTX was measured at day 10 to quantitate bone resorption during days 7-10, and the results are expressed as the resorption index CTX at day 10/TRACP 5b at day 7, which describes the mean osteoclast activity. Cytotoxicity was determined by quantitating the amount of dying cells from the culture medium at day 10.

Series [3] deals with human osteoclast precursor cells derived from bone marrow. As to the kind of experiment: osteoclast differentiation assay (medium TRACP 5b at day 7). In kind it is cell-based. Conditions: 100 ng/ml OPG, in U/L. The method, then: The objective of this study is to investigate the effects of selected test compounds selected on resorbing activity of human osteoclasts in vitro. Bone resorption is studied using a model where human osteoclast precursor cells derived from bone marrow are cultured for 7 days on bovine bone slices and allowed to differentiate into bone-resorbing osteoclasts. […] In each test, a baseline group without test compounds is included to obtain a baseline value. […] The test system can also be modified by adding the test compounds at the beginning of the culture period to study if the test compounds affect osteoclast differentiation. Osteoprotegerin is used as a reference inhibitor of osteoclast differentiation in such cultures.
Appropriate dilutions were made from the stock solution to obtain the desired test concentrations (0.1 nM, 1 nM and 10 nM in osteoclast differentiation assay and 1 nM, 10 nM and 100 nM in osteoclast activity assay).

The mark [4] stands for this setting: Homo sapiens, Osteoclast, read-out: Resorbing activity, % of activity compared with baseline group.

On to `CC(C)C[C@H](NC(=O)[C@H]1O[C@@H]1C(=O)O)C(=O)NCCCCN=C(N)N` [Compound E64, reference compound], for which the “resorption index CTX at day 10/TRACP 5b at day 7” value with human osteoclasts [1] (Mean of 6 replicates) is 0.45; with human osteoclasts [1] (single replicate), 0.41 (2×) and 0.64 and 0.38 and 0.59 and 0.29. In addition, the “concentration of CTX released from bone collagen into the culture medium” value is 8.44 nM with human osteoclasts [1] (Mean of 6 replicates); 9.13 nM and 10.96 nM and 7.91 nM and 7.78 nM and 9.39 nM and 5.45 nM with human osteoclasts [1] (single replicate). Besides, the “luminescence released from dying cells during the culture period” value in the series with human osteoclasts [2] (Mean of 6 replicates) was 1594; in the series with human osteoclasts [2] (single replicate) it was 1979 and 1666 and 1489 and 1568 and 1355 and 1507.

As to `CC(=O)O[C@H]1C(=O)[C@@]2(C)[C@H]([C@H](OC(=O)c3ccccc3)[C@]3(O)C[C@H](OC(=O)[C@H](O)[C@@H](NC(=O)c4ccccc4)c4ccccc4)C(C)=C1C3(C)C)[C@]1(OC(C)=O)CO[C@@H]1C[C@@H]2O` [Paclitaxel, paclitaxel, reference compound], the activity at 0.0025 µM in the series on human osteoclasts [1] (setting [4]) is 109%. The activity at 0.005 µM in the series with human osteoclasts [1] (setting [4]) came to 98%. Also, the activity at 0.01 µM in the series on human osteoclasts [1] (setting [4]) was 87%. Also, in the series on human osteoclasts [1] (setting [4]), the activity at 0.02 µM is 95%. Also, in the series on human osteoclasts [1] (setting [4]), the activity at 0.05 µM came out at 64%. Besides, the activity at 0.1 µM with human osteoclasts [1] (setting [4]) came out at 57%. Also, in the series on human osteoclasts [1] (setting [4]), the activity at 0.2 µM came to 72%. The “Cytotoxicity, % compared with baseline group” value in the series with human osteoclasts [2] (2.5 nM) is listed as 121%; in the series on human osteoclasts [2] (5 nM) it was 99%; with human osteoclasts [2] (10 nM) it was 121%; with human osteoclasts [2] (20 nM), 116%; in the series on human osteoclasts [2] (50 nM), 131%; in the series with human osteoclasts [2] (100 nM) it was 120%. Moreover, in the series with human osteoclasts [2] (200 nM), the “Cytotoxicity, % compared with baseline group” value is given as 125%.

B1: OPG: Osteoprotegerin, reference inhibitor of osteoclast differentiation (PeproTech 450-14) (protein, UniProt O00300 22-401, looked up)
Tumor necrosis factor …: ETFPPKYLHYDEETSHQLLCDKCPPGTYLKQHCTAKWKTVCAPCPDHYYTDSWHTSDECLYCSPVCKELQYVKQECNRTHNRVCECKEGRYLEIEFCLKHRSCPPGFGVVQAGTPERNTVCKRCPDGFFSNETSSKAPCRKHTNCSVFGLLLTQKGNATHDNICSGNSESTQKCGIDVTLCEEAFFRFAVPTKFTPNWLSVLVDNLPGTKVNAESVERIKRQHSSQEQTFQLLKLWKHQNKDQDIVKKIIQDIDLCENSVQRHIGHANLTFEQLRSLMESLPGKKVGAEDIEKTIKACKPSDQILKLLSLWRIKNGDQDTLKGLMHALKHSKTYHFPKTVTQSLKKTIRFLHSFTMYKLYQKLFLEMIGNQVQSVKISCL
For the molecule B1, the “medium TRACP 5b activity at day 7” value in series [3] (Mean of 6 replicates) was 8.59; in series [3] (single replicate), 4.46 and 10.67 and 10.53 and 10.19 and 5.70 and 10.00.
